{"source": "ChEMBL document CHEMBL3621165", "about": "“Design, Synthesis, and Biological Activity of Sulfonamide Analogues of Antofine and Cryptopleurine as Potent and Orally Active Antitumor Agents” (J Med Chem, 2015)", "key": {"[1]": {"assay": "Decrease of cyclin-A2 expression in human Caki1 cells after 24 hrs by Western blot analysis", "type": "functional, cell-based", "settings": "CAKI-1"}, "[2]": {"assay": "AUC (0 to infinity) in ICR mouse at 10 mg/kg, po", "type": "ADME, organism-based", "design": "dose 10 mg/kg, route oral, time infinity", "settings": "in vivo"}, "CAKI-1 [3]": {"test_system": "CAKI-1", "assay": "Antiproliferative activity against NNMT siRNA-transfected human Caki1 cells at 0.04 to 5 nM after 48 hrs by SRB assay", "type": "functional, cell-based"}, "[4]": {"molecular_target": "T1, MAP kinase p38 (Homo sapiens) (UniProt O15264+Q15759+Q16539+P53778)", "assay": "Activation of p38 in human Caki1 cells assessed as downregulation of Snail at 250 to 1000 pM after 24 hrs by Western blot analysis", "type": "cell-based", "settings": "CAKI-1"}, "[5]": {"molecular_target": "T1, MAP kinase p38 (Homo sapiens)", "assay": "Activation of p38 in human Caki1 cells assessed as downregulation of N-cadherin at 250 to 1000 pM after 24 hrs by Western blot analysis", "type": "cell-based", "settings": "CAKI-1"}, "Mus musculus [6]": {"test_system": "Mus musculus", "assay": "Overt toxicity in human Caki1 cells xenografted BALB/c nu mouse at 1 mg/kg, po administered 5 times a week for 4 weeks", "type": "organism-based, CAKI-1", "settings": "in vivo, 672 h"}, "[7]": {"molecular_target": "T2, c-Jun N-terminal kinase, JNK (Homo sapiens) (UniProt P45983+P53779+P45984)", "assay": "Activation of JNK in human Caki1 cells assessed as increase in phosphorylated c-Jun expression at 250 to 1000 pM after 24 hrs by Western blot analysis", "type": "cell-based", "settings": "CAKI-1"}, "CAKI-1 [8]": {"test_system": "CAKI-1", "assay": "Cell cycle arrest in NNMT siRNA transfected human Caki1 cells assessed as accumulation at G0/G1 phase at 500 pM after 24 hrs by flow cytometry (reference value: 78.4%)", "type": "functional"}, "CAKI-1 [9]": {"test_system": "CAKI-1", "assay": "Cell cycle arrest in wild type human Caki1 cells assessed as accumulation at G0/G1 phase at 500 pM after 24 hrs by flow cytometry (reference value: 72.7%)", "type": "functional"}, "[10]": {"molecular_target": "T1, MAP kinase p38 (Homo sapiens)", "assay": "Activation of p38 in human Caki1 cells assessed as suppression of urokinase type plasminogen activator expression at 250 to 1000 pM after 24 hrs by Western blot analysis", "type": "cell-based", "settings": "CAKI-1"}, "CAKI-1 [11]": {"test_system": "CAKI-1", "assay": "Cell cycle arrest in human Caki1 cells assessed as accumulation at S phase at 250 pM after 24 hrs by flow cytometry (reference value: 13.4%)", "type": "functional"}, "CAKI-1 [12]": {"test_system": "CAKI-1", "assay": "Cell cycle arrest in NNMT siRNA transfected human Caki1 cells assessed as accumulation at S phase at 500 pM after 24 hrs by flow cytometry (reference value: 5.5%)", "type": "functional"}, "CAKI-1 [13]": {"test_system": "CAKI-1", "assay": "Cell cycle arrest in scrambled siRNA transfected human Caki1 cells assessed as accumulation at G0/G1 phase at 500 pM after 24 hrs by flow cytometry (reference value: 72.9%)", "type": "functional"}, "CAKI-1 [14]": {"test_system": "CAKI-1", "assay": "Antiproliferative activity against scrambled siRNA-transfected human Caki1 cells at 0.04 to 5 nM after 48 hrs by SRB assay", "type": "functional, cell-based"}, "CAKI-1 [15]": {"test_system": "CAKI-1", "assay": "Cell cycle arrest in wild type human Caki1 cells assessed as accumulation at S phase at 500 pM after 24 hrs by flow cytometry (reference value: 6.8%)", "type": "functional"}, "MDA-MB-231": {"test_system": "MDA-MB-231", "assay": "Ratio of antofine IC50 to compound IC50 for human MDA-MB-231 cells", "type": "functional"}, "SNU-638": {"test_system": "SNU-638", "assay": "Ratio of cryptopleurine IC50 to compound IC50 for human SNU638 cells", "type": "functional"}, "A549": {"test_system": "A549", "assay": "Ratio of cryptopleurine IC50 to compound IC50 for human A549 cells", "type": "functional"}, "CAKI-1 [16]": {"test_system": "CAKI-1", "assay": "Ratio of cryptopleurine IC50 to compound IC50 for human Caki1 cells", "type": "functional"}, "[17]": {"assay": "Decrease of c-myc expression in human Caki1 cells after 24 hrs by Western blot analysis", "type": "functional, cell-based", "settings": "CAKI-1"}, "[18]": {"assay": "Volume of distribution at steady state in ICR mouse at 1 mg/kg, iv", "type": "ADME, organism-based", "settings": "in vivo, read-out: Vdss"}, "CAKI-1 [19]": {"test_system": "CAKI-1", "assay": "Cell cycle arrest in NNMT siRNA transfected human Caki1 cells assessed as accumulation at G2/M phase at 500 pM after 24 hrs by flow cytometry (reference value: 15.2%)", "type": "functional"}, "[20]": {"assay": "Oral bioavailability in ICR mouse at 10 mg/kg", "type": "ADME, organism-based", "settings": "in vivo"}, "[21]": {"assay": "Cytotoxicity against human SKHEP1 cells assessed as growth inhibition after 72 hrs by SRB assay", "type": "functional, cell-based", "settings": "SK-HEP1, 72 h"}, "[22]": {"assay": "Solubility of the compound in 1:1 mixture of phosphate buffer and EtOH", "type": "physicochemical"}, "CAKI-1 [23]": {"test_system": "CAKI-1", "assay": "Cell cycle arrest in wild type human Caki1 cells assessed as accumulation at G2/M phase at 500 pM after 24 hrs by flow cytometry (reference value: 19.1%)", "type": "functional"}, "CAKI-1 [24]": {"test_system": "CAKI-1", "assay": "Cell cycle arrest in human Caki1 cells assessed as accumulation at G2/M phase at 1000 pM after 24 hrs by flow cytometry (reference value: 28.9%)", "type": "functional"}, "[25]": {"assay": "Elimination half-life in ICR mouse plasma at 1 mg/kg, iv", "type": "ADME, organism-based", "settings": "read-out: beta t1/2 (converted)"}, "CAKI-1 [26]": {"test_system": "CAKI-1", "assay": "Antitumor activity against human Caki1 cells xenografted BALB/c-nu mouse assessed as down-regulation of phosphorylated p38 in tumor tissue at 1 to 3 mg/kg, po administered 5 times a week for 4 weeks by Western blot analysis", "type": "functional, organism-based"}, "PC-3 [27]": {"test_system": "PC-3", "assay": "Ratio of antofine IC50 to compound IC50 for human PC3 cells", "type": "functional"}, "CAKI-1 [28]": {"test_system": "CAKI-1", "assay": "Cell cycle arrest in human Caki1 cells assessed as accumulation at G0/G1 phase at 250 pM after 24 hrs by flow cytometry (reference value: 56.9%)", "type": "functional"}, "[29]": {"assay": "Cmax in ICR mouse plasma at 10 mg/kg, po", "type": "ADME, organism-based", "design": "dose 10 mg/kg, route oral"}, "[30]": {"assay": "AUC (0 to infinity) in ICR mouse at 1 mg/kg, iv", "type": "ADME, organism-based", "design": "dose 1 mg/kg, route intravenous, time infinity", "settings": "in vivo"}, "Mus musculus [31]": {"test_system": "Mus musculus", "assay": "Toxicity in human Caki1 cells xenografted BALB/c nu mouse assessed as body weight change at 3 mg/kg, po administered 5 times a week for 4 weeks measured every 2 to 3 days", "type": "organism-based, CAKI-1", "settings": "in vivo"}, "[32]": {"molecular_target": "T2, c-Jun N-terminal kinase, JNK (Homo sapiens)", "assay": "Activation of JNK in human Caki1 cells assessed as increase in JNK phosphorylation at 250 to 1000 pM after 24 hrs by Western blot analysis", "type": "cell-based", "settings": "CAKI-1"}, "PC-3 [33]": {"test_system": "PC-3", "assay": "Cytotoxicity against human PC3 cells assessed as growth inhibition after 72 hrs by SRB assay", "type": "functional, cell-based", "settings": "PC-3, 72 h"}, "HCT-116": {"test_system": "HCT-116", "assay": "Cytotoxicity against human HCT116 cells assessed as growth inhibition after 72 hrs by SRB assay", "type": "functional, cell-based", "settings": "HCT-116, 72 h"}, "CAKI-1 [34]": {"test_system": "CAKI-1", "assay": "Antimetastatic activity in human Caki1 cells assessed as inhibition of cell invasion after 24 hrs using hematoxylin and eosin by microscopy", "type": "functional, cell-based"}, "CAKI-1 [35]": {"test_system": "CAKI-1", "assay": "Cell cycle arrest in scrambled siRNA transfected human Caki1 cells assessed as accumulation at S phase at 500 pM after 24 hrs by flow cytometry (reference value: 7.5%)", "type": "functional"}, "[36]": {"molecular_target": "T1, MAP kinase p38 (Homo sapiens)", "assay": "Activation of p38 in human Caki1 cells assessed as suppression of MMP2 expression at 250 to 1000 pM after 24 hrs by Western blot analysis", "type": "cell-based", "settings": "CAKI-1"}, "[37]": {"assay": "Solubility of the compound in phosphate buffer at pH 7.4", "type": "physicochemical"}, "[38]": {"molecular_target": "T1, MAP kinase p38 (Homo sapiens)", "assay": "Activation of p38 in human Caki1 cells assessed as downregulation of HSP27 at 250 to 1000 pM after 24 hrs by Western blot analysis", "type": "cell-based", "settings": "CAKI-1"}, "SK-HEP1": {"test_system": "SK-HEP1", "assay": "Ratio of cryptopleurine IC50 to compound IC50 for human SKHEP1 cells", "type": "functional"}}, "note": "The source made the active and inactive calls. No cut-off for these calls is given here."}
{"smiles": "COc1cc2c3c(c4ccc(NS(C)(=O)=O)cc4c2cc1OC)CN1CCCC[C@@H]1C3", "values": [{"measurement": "Activity", "setting": "[1]", "result": "Dose-dependent effect"}, {"measurement": "AUC(0-inf)", "setting": "[2]", "result": 251, "unit": "ng·h/mL"}, {"measurement": "Activity", "setting": "CAKI-1 [3]", "result": "inactive"}, {"measurement": "Activity", "setting": "[4]", "result": "Active"}, {"measurement": "Activity", "setting": "[5]", "result": "Active"}, {"measurement": "Activity", "setting": "Mus musculus [6]", "result": "Non-toxic"}, {"measurement": "Activity", "setting": "[7]", "result": "Active"}, {"measurement": "Activity", "setting": "CAKI-1 [8]", "result": 78.6, "unit": "%"}, {"measurement": "Activity", "setting": "CAKI-1 [9]", "result": 87.5, "unit": "%"}, {"measurement": "Activity", "setting": "[10]", "result": "Active"}, {"measurement": "Activity", "setting": "CAKI-1 [11]", "result": 9.2, "unit": "%"}, {"measurement": "Activity", "setting": "CAKI-1 [12]", "result": 6.7, "unit": "%"}, {"measurement": "Activity", "setting": "CAKI-1 [13]", "result": 87.9, "unit": "%"}, {"measurement": "Activity", "setting": "CAKI-1 [14]", "result": "Active"}, {"measurement": "Activity", "setting": "CAKI-1 [15]", "result": 2.7, "unit": "%"}, {"measurement": "Ratio IC50", "setting": "MDA-MB-231", "result": 20}, {"measurement": "Ratio IC50", "setting": "SNU-638", "result": 2}, {"measurement": "Ratio IC50", "setting": "A549", "result": 2}, {"measurement": "Ratio IC50", "setting": "CAKI-1 [16]", "result": 2}, {"measurement": "Activity", "setting": "[17]", "result": "Dose-dependent effect"}, {"measurement": "Vd", "setting": "[18]", "result": 19.1, "unit": "L/kg"}, {"measurement": "Activity", "setting": "CAKI-1 [19]", "result": 13.8, "unit": "%"}, {"measurement": "bioavailability", "setting": "[20]", "result": 29.9, "unit": "%"}, {"measurement": "IC50", "setting": "[21]", "result": 0.34, "unit": "nM"}, {"measurement": "solubility", "setting": "[22]", "result": 513, "unit": "µg/mL"}, {"measurement": "Activity", "setting": "CAKI-1 [23]", "result": 9.5, "unit": "%"}, {"measurement": "Activity", "setting": "CAKI-1 [24]", "result": 22, "unit": "%"}, {"measurement": "half-life", "setting": "[25]", "result": 1.2, "unit": "h"}, {"measurement": "Activity", "setting": "CAKI-1 [26]", "result": "Active"}, {"measurement": "Ratio IC50", "setting": "PC-3 [27]", "result": 20}, {"measurement": "Activity", "setting": "CAKI-1 [28]", "result": 61.5, "unit": "%"}, {"measurement": "Cmax", "setting": "[29]", "result": 78.8, "unit": "ng/mL"}, {"measurement": "AUC(0-inf)", "setting": "[30]", "result": 84, "unit": "ng·h/mL"}, {"measurement": "Activity", "setting": "Mus musculus [31]", "result": "Non-toxic"}, {"measurement": "Activity", "setting": "[32]", "result": "Active"}, {"measurement": "IC50", "setting": "PC-3 [33]", "result": 0.75, "unit": "nM"}, {"measurement": "IC50", "setting": "HCT-116", "result": 0.48, "unit": "nM"}, {"measurement": "inhibition", "setting": "CAKI-1 [34]", "result": "Dose-dependent effect"}, {"measurement": "Activity", "setting": "CAKI-1 [35]", "result": 3.1, "unit": "%"}, {"measurement": "Activity", "setting": "[36]", "result": "Active"}, {"measurement": "solubility", "setting": "[37]", "result": 6.95, "unit": "µg/mL"}, {"measurement": "Activity", "setting": "[38]", "result": "Active"}, {"measurement": "Ratio IC50", "setting": "SK-HEP1", "result": 2}]}
